Data published in patent publication EP2229935A1, “Peptide derivatives or pharmaceutically acceptable salts thereof, method for producing the same, use of said derivatives and pharmaceutical composition” (Nebolsin, Vladimir Evgenievich, priority 1997, dated 1999).

How the values were obtained:
[1] = tested on: peritoneal macrophages; assay: Activity of peritoneal macrophages (NBT reduction test); type: in vivo, mongrel white male mice; settings: for portion of active macrophages: mice, oral three days at 50 and 500 µg/kg
Description: Change in the activity of peritoneal macrophages (PM) as effected by the test compounds was studied.
Experiments were carried out on mongrel white male mice with initial body mass 20-22 g. Each group included 10 animals. Compounds III, VI, XLIV were dissolved in normal saline (NS). The test compounds were administered to animals orally for three days at doses 50 and 500 µg/kg. Animals of the control group were given equal volume of NS. Mice were sacrified 20 hours after the last compound administration, peritoneal cavity was washed with 1.5 ml Henks solution comprising 5 U/ml heparine. 0.1 ml of wash solution were incubated for 30 minutes at 37°C with 0.1 ml 0.2% nitroblue tetrasolium (NBT) solution, then smears were prepared. Nuclei were additionaly stained with o.1% neutral red solution. Results were expressed in percent of active cells [Klimov V.V., Kolovkina T.V. Nitroblue tetrasolium reduction test stimulated with pyrogenal. Laborotornoye delo (Laboratory matter) (1982), No 10, pp. 624-625]. […]

[2] = tested on: α-interferon; assay: α-interferon production by splenocytes after stress; type: in vivo, Balb male mice; settings: 50 µg/kg orally
Description: Experiments were carried out on inbred Balb male mice with initial body mass 16-18 g. Each group included 12 animals. The model of swimming in warm water for 20 minutes was used to develop emotional-locomotory stress in animals. Stress development was estimated by the activity of natural killer lymphocytes (NK cells) and by functioning of the interferon system [Sukhikh T.G., Nossik N.N., Parshina O.V., Van'ko L.V., Meerson F.Z., Yershov F.I. Relationship between the natural cellular cytotoxicity system and the interferon system in immobilization stress. Bulletin of Experimental Biology (1984), ? , pp.593-595].
In studying interferon reaction of mouse splenocytes spleen cells were placed into incubation medium (the RPMI-1640 medium + 10% fetal calf serum), their concentration was brought to 1-3 x 10^8 cells/ml and they were incubated at 37°C for 24 hours. Newcasle disease virus (α-interferon induction) and FGA mitogen (γ-interferon induction) were used as intereferon inducers [Nossik N.N., Bopegamage S.A., Yershov F.I. Properties of interferons produced by different cell populations. Acta microbiologica Hungarica (1988), Vol. 35, Iss. 4, pp. 397-403].
Animals were divided into four groups, each including 36 mice. • Group 1 - intact animals not subjected to stress and given normal saline (NS). • Group 2 - animals which ere subjected to stress effect and given NS. • Group 3 - animals which were subjected to stress effect and administered compound III. • Group 4 - animals which were subjected to stress effect and administered compound XLIV.
Activity of NK-cells and interferon state were dynamically determined in 4 hours following stress, in 24 hours and then by days 5, 7 and 10.

[3] = tested on: mongrel female rats; assay: Hepatoprotective activity: subchronic liver lesion (hepatitis) with CCl4; type: in vivo; settings: for Cholesterol level, mg/100 ml VLDL-CS / Cholesterol level, mg/100 ml LDL-CS / Cholesterol level, mg/100 ml HDL-CS / Cholesterol level, mg/100 ml total-CS / TG level, mg/100ml / ALT, nM/dl / AST, nM/dl: blood serum; for Cholesterol level, mg/100 ml VLDL-CS: TG/5; for Cholesterol level, mg/100 ml LDL-CS: calculated by formula; for ALT, nM/dl / AST, nM/dl: oral 8 days
Description: Hepatoprotective properties of the compounds were studied on a model of subchronic liver lesion (hepatitis) with carbon quadrichloride.
70 mongrel female rats with initial body mass 190-200 g fed a standard vivarium ration, were used in experiment. Animals were divided into 7 groups (10 rats each): • Group 1 - control one; during the first four days of experiment animals were subcutaneously injected 0.2 ml vaseline oil; • Group 2 - during the first four days animals were subcutaneously injected 50% CCl4 solution in vaseline oil at a rate of 0.1 ml per 100 g body mass; • Group 3 - Legalon in a starch gel was administered orally for 8 days at a dose 30 mg/kg against the background of CCl4 administration; […] , resepectively, was administered in a way similar to group III; […] , resepectively, was administered in a way similar to group III.
The test compounds and Legalon were administered to animals 1 hour prior to CCl4 administration. 24 hours after the last administration of the drugs, animals were decapitated.
Activity of blood serum transaminases ALT and AST was assessed using the conventional Frenkel-Rightman method [Laboratory examination methods in the clinic. Ed. by Menshikov V.V. Moscow, Meditsina publishers (1969), 302 pp.].
The published method [Rodionova L.P. Modification of blood serum trigyceride level determination method. Laboratomoye delo (Laboratory Matter) (1980), No 5, pp. 297-299] was used to determine blood serum TG level.
Blood serum LP final product MDA was determined using the published method [Korobeinikova E.N. Modification of lipid peroxydation product determination in reaction with thiobarbituric acid. Laboratomoye delo (Laboratory Matter) (1989), No 7, pp. 8-10]. Concentration of TBA-active products was calculated using regression equation: C = 0.21 + 0.26D, [formula] where C - concentration of TBA-active products (in nM MDA per 1 ml of serum), D - index D535 -D580 (in optic density units).
Total hepatic lipids were extracted using the modified Folch method [Cates M. Technology of Lipidology. Moscow, Mir publishers (1975), pp. 74-76]. Quantative content of lipid fractions was assessed with thin layer chromatography method (TLC) using the system of solvents hexane:diethyl ether:acetic acid at ratio 80:20:2. Zones of individual lipid fractions were determined using 10% alcohol solution of phosphoromolyobdenic acid which following elution were spectrophotometrically analysed at 600 nm.
Hepatic MDA level was determined using the published method [Stalnaya I.D., Garishvili T.G. Malonic dialdehyde determination method using thiobarbituric acid. In: Modem methods in biochemistry. Moscow, Meditsina publishers (1977), pp. 66-69]. MDA quantity was calculated using molar extinction coefficient value of stained trimethynic complex formed by MDA with two TBA molecules: E = 1.56 × 10^5 (cm)^-1 × M^-1 [formula]

[4] = score 0 (no formazane inclusions, inactive PM), 50 µg/kg orally for three days
[5] = score 0 (no formazane inclusions, inactive PM), 500 µg/kg orally for three days
[6] = score 1 (single formazane inclusions), 50 µg/kg orally for three days
[7] = score 1 (single formazane inclusions), 500 µg/kg orally for three days
[8] = score 2 (inclusions fill up to 1/3 of PM cytoplasm), 50 µg/kg orally for three days
[9] = score 2 (inclusions fill up to 1/3 of PM cytoplasm), 500 µg/kg orally for three days
[10] = score 3 (inclusions fill up to 1/2 of PM cytoplasm), 50 µg/kg orally for three days
[11] = score 3 (inclusions fill up to 1/2 of PM cytoplasm), 500 µg/kg orally for three days
[12] = rats, CCl4 hepatitis, 0.05 µg/kg
[13] = rats, CCl4 hepatitis, 0.5 µg/kg
[14] = rats, CCl4 hepatitis, daily dose 0.05 mg/kg
[15] = rats, CCl4 hepatitis, daily dose 0.50 mg/kg
[16] = rats, CCl4 hepatitis, 0.05 mg/kg
[17] = rats, CCl4 hepatitis, 0.50 mg/kg
[18] = rats, CCl4 hepatitis, liver, 0.05 µg/kg
[19] = rats, CCl4 hepatitis, liver, 0.5 µg/kg

Row | Compound | portion of active macrophages [1] | Activity of macrophages, percent [1, 4] [%] | Activity of macrophages, percent [1, 5] [%] | Activity of macrophages, percent [1, 6] [%] | Activity of macrophages, percent [1, 7] [%] | Activity of macrophages, percent [1, 8] [%] | Activity of macrophages, percent [1, 9] [%] | Activity of macrophages, percent [1, 10] [%] | Activity of macrophages, percent [1, 11] [%] | α-interferon, U/ml ([2]; 0 days after stress) [U/ml] | α-interferon, U/ml ([2]; 0.16 days after stress) [U/ml] | α-interferon, U/ml ([2]; 1 day after stress) [U/ml] | α-interferon, U/ml ([2]; 5 days after stress) [U/ml] | α-interferon, U/ml ([2]; 7 days after stress) [U/ml] | α-interferon, U/ml ([2]; 10 days after stress) [U/ml] | Cholesterol level, mg/100 ml VLDL-CS [3, 12] | Cholesterol level, mg/100 ml VLDL-CS [3, 13] | Cholesterol level, mg/100 ml LDL-CS [3, 12] | Cholesterol level, mg/100 ml LDL-CS [3, 13] | Cholesterol level, mg/100 ml HDL-CS [3, 12] [mg/100 ml] | other results
1 | O=C(O)CCCC(=O)NCCc1c[nH]cn1 [compound III, N-GLUTARYLHISTAMINE] | pronounced in study of the both substance doses | 11.6 ± 2.8 | 12.8 ± 1.3 | 27.5 ± 2.5 | 31.3 ± 2.3 | 44.6 ± 1.9 | 46.0 ± 2.6 | 15.8 ± 3.3 | 10.9 ± 2.1 | 160 | 10 | 10 | 160 | 160 | 160 | 17.7 ± 2.0 mg/100 ml | 15.8 ± 1.0 p<0.05 mg/100 ml | 19.6 ± 1.4 p<0.01 mg/100 ml | 12.0 ± 0.6 mg/100 ml | 52.3 ± 2.9 | Lipid composition (in percent of total lipids) FCS ([3]; 5e-05 mg/kg): 20.3 ± 0.8 p<0.05% of total lipids; Lipid composition (in percent of total lipids) Phospholipids ([3]; 5e-05 mg/kg): 24.4 ± 0.7 p<0.05% of total lipids; Lipid composition (in percent of total lipids) Triglycerides ([3]; 5e-05 mg/kg): 35.5 ±1.1% of total lipids; Lipid composition (in percent of total lipids) FCS ([3]; 0.0005 mg/kg): 18.9 ± 0.7% of total lipids; Lipid composition (in percent of total lipids) Phospholipids ([3]; 0.0005 mg/kg): 23.8 ± 1.0 p<0.05% of total lipids; Lipid composition (in percent of total lipids) Triglycerides ([3]; 0.0005 mg/kg): 35.3 ± 0.7% of total lipids; Cholesterol level, mg/100 ml total-CS [3, 12]: 89.5 ± 3.8 mg/100 ml; TG level, mg/100ml [3, 12]: 88.0 ± 10.2 mg/100ml; Cholesterol level, mg/100 ml HDL-CS [3, 13]: 59.3 ± 2.6 mg/100 ml; Cholesterol level, mg/100 ml total-CS [3, 13]: 87.0 ± 2.6 mg/100 ml; TG level, mg/100ml [3, 13]: 78.6 ± 5.4 p<0.05 mg/100ml; ALT, nM/dl [3, 14]: 624 ± 31 nM/dl; AST, nM/dl [3, 14]: 478 ± 26 nM/dl; ALT, nM/dl [3, 15]: 609 ± 42 nM/dl; AST, nM/dl [3, 15]: 522 ± 33 nM/dl; Hepatic MDA, nM/l [3, 16]: 5.00 ± 0.15 p<0.05 nM/l; Serum MDA, nM/l [3, 16]: 5.86 ± 0.70 nM/l; Hepatic MDA, nM/l [3, 17]: 4.60 ± 0.52 p<0.05 nM/l; Serum MDA, nM/l [3, 17]: 5.77 ± 0.15 p<0.05 nM/l
2 | γ-L-glutamylhistamine [compound XLIV] | more pronounced at a dose 500 µg/kg | 23.9 ± 4.4 | 17.4 ± 2.5 | 37.3 ± 3.4 | 37.3 ± 3.9 | 34.9 ± 5.9 | 35.8 ± 4.4 | 5.4 ± 2.0 | 9.4 ± 2.9 | 160 | 10 | 80 | 80 | 100 | 140 | 13.9 ± 1.1 p<0.01 mg/100 ml | 12.4 ± 0.7 p<0.001 mg/100 ml | 21.9 ± 1.1 p<0.001 mg/100 ml | 17.1 ± 1.0 p<0.01 mg/100 ml | 49.6 ± 2.5 | Cholesterol level, mg/100 ml total-CS [3, 12]: 85.3 ± 3.9 mg/100 ml; TG level, mg/100ml [3, 12]: 68.3 ± 5.7 p<0.001 mg/100ml; Cholesterol level, mg/100 ml HDL-CS [3, 13]: 57.5 ± 5.1 mg/100 ml; Cholesterol level, mg/100 ml total-CS [3, 13]: 87.2 ± 6.5 mg/100 ml; TG level, mg/100ml [3, 13]: 62.4 ± 3.9 p<0.001 mg/100ml; ALT, nM/dl [3, 14]: 599 ± 18 nM/dl; AST, nM/dl [3, 14]: 470 ± 17 nM/dl; ALT, nM/dl [3, 15]: 551 ± 28 nM/dl; AST, nM/dl [3, 15]: 475 ± 19 nM/dl; Lipid composition (in percent of total lipids) FCS [3, 18]: 18.0 ± 0.8% of total lipids; Lipid composition (in percent of total lipids) Phospholipids [3, 18]: 22.8 ± 0.9% of total lipids; Lipid composition (in percent of total lipids) Triglycerides [3, 18]: 39.9 ± 1.7% of total lipids; Lipid composition (in percent of total lipids) FCS [3, 19]: 20.6 ± 0.8 p<0.05% of total lipids; Lipid composition (in percent of total lipids) Phospholipids [3, 19]: 26.1 ± 0.6 p<0.001% of total lipids; Lipid composition (in percent of total lipids) Triglycerides [3, 19]: 33.9 ± 1.0 p<0.05% of total lipids; Hepatic MDA, nM/l [3, 16]: 4.47 ± 0.45 p<0.05 nM/l; Serum MDA, nM/l [3, 16]: 5.82 ± 0.38 p<0.05 nM/l; Hepatic MDA, nM/l [3, 17]: 3.51 ± 0.30 p<0.001 nM/l; Serum MDA, nM/l [3, 17]: 4.72 ± 0.57 p<0.01 nM/l
